From patent publication US4670461A, “Formaldehyde derivatives of mitindomide” (priority 1984, dated 1987)
Counter-ions that a name gives are not always drawn.

Columns and labels:
L1210 leukemia [1] = test: S.C. implanted L1210 leukemia in mice (CD2F1); type: in vivo
Description: ^a Experimental formulation of mitindomide was used (NaOH + manitol).

Water solubility = type: physicochemical; conditions: water
P388 = test: IP P388, Days 1-9 (NCI murine test system); type: in vivo; conditions: IP P388, Days 1-9, dose 68.8
Experimental: Anti-tumor or anti-neoplastic activity of the novel derivatives of the present invention is determined by using the murine test system for screening anti-cancer compounds as standardized by the National Cancer Institute, Bethesda, Md., U.S.A., and described in Cancer Chemotherapy Reports, 3 (2) 1-103 (1972) which publication is incorporated herein by reference.
It is noted that although the intraperitoneal mode of administration of the novel derivatives is preferred, other modes of parenteral administration, e.g. subcutaneous, intravenous, etc., are, of course, possible and included within the purview of this invention. Similarly, although water has been used as a vehicle for the administration of the compounds of the present invention, other pharmaceutically acceptable vehicles, e.g. saline, buffers, and other aqueous media may also be used for the administration of these compounds together with adjuvants, agents or additives commonly employed in the preparation of pharmaceutical compositions. Examples of such agents, additives and adjuvants that may be employed are listed in Instruction 14, Screening Data Summary Interpretation and Outline of Clinical Screen. Drug Evaluation Branch, NCI. and are incorporated herein by reference.

L1210 leukemia [2] = test: IP implanted L1210 leukemia in mice (CD2F1); type: in vivo
[3] = background section; cited from earlier work
[4] = test system: certain experimental tumor systems; conditions: Pettit et al, Can. J. Chem. 61, 2291-2294 (1983); cited from earlier work
[5] = 24.8 mg/kg ip days 1-9, Expt. 1
[6] = 24.8 mg/kg ip days 1-9, Expt. 2
[7] = 41.3 mg/kg ip days 1-9, Expt. 1
[8] = 41.3 mg/kg ip days 1-9, Expt. 2
[9] = 68.8 mg/kg ip days 1-9, Expt. 1
[10] = 68.8 mg/kg ip days 1-9, Expt. 2
[11] = 114.7 mg/kg ip days 1-9, Expt. 1
[12] = 24.8 mg/kg IP days 1-9, Expt. 1
[13] = 24.8 mg/kg IP days 1-9, Expt. 2
[14] = 24.8 mg/kg IP days 1-9, Expt. 3
[15] = 41.3 mg/kg IP days 1-9, Expt. 1
[16] = 41.3 mg/kg IP days 1-9, Expt. 2
[17] = 41.3 mg/kg IP days 1-9, Expt. 3
[18] = 68.8 mg/kg IP days 1-9, Expt. 1
[19] = 68.8 mg/kg IP days 1-9, Expt. 2
[20] = 68.8 mg/kg IP days 1-9, Expt. 3
[21] = 114.7 mg/kg IP days 1-9, Expt. 1
[22] = 114.7 mg/kg IP days 1-9, Expt. 2
[23] = 114.7 mg/kg IP days 1-9, Expt. 3
[24] = 18.0 mg/kg ip days 1-9, Expt. 1
[25] = 18.0 mg/kg ip days 1-9, Expt. 2
[26] = 30.0 mg/kg ip days 1-9, Expt. 1
[27] = 30.0 mg/kg ip days 1-9, Expt. 2
[28] = 50.0 mg/kg ip days 1-9, Expt. 1
[29] = 50.0 mg/kg ip days 1-9, Expt. 2
[30] = 83.3 mg/kg ip days 1-9, Expt. 1
[31] = 18.0 mg/kg IP days 1-9, Expt. 1
[32] = 18.0 mg/kg IP days 1-9, Expt. 2
[33] = 18.0 mg/kg IP days 1-9, Expt. 3
[34] = 30.0 mg/kg IP days 1-9, Expt. 1
[35] = 30.0 mg/kg IP days 1-9, Expt. 2
[36] = 30.0 mg/kg IP days 1-9, Expt. 3
[37] = 50.0 mg/kg IP days 1-9, Expt. 1
[38] = 50.0 mg/kg IP days 1-9, Expt. 2
[39] = 50.0 mg/kg IP days 1-9, Expt. 3
[40] = 83.3 mg/kg IP days 1-9, Expt. 1
[41] = 83.3 mg/kg IP days 1-9, Expt. 2
[42] = 83.3 mg/kg IP days 1-9, Expt. 3

CN1CCN(CN2C(=O)C3C4C=CC(C3C2=O)C2C3C(=O)N(CN5CCN(C)CC5)C(=O)C3C42)CC1 (stereo not shown) [Example 4, 4,8-Ethenopyrrolo[3',4':3,4]cyclobut[1,2-f]isoindole-1,3,5,7(2H,6H)-tetrone,3a,3b,4,4a,7a,8,8a,8b-octahydro-2,6-bis(N-methylpiperazinomethyl)di-hydrochloride]
ILS (L1210 leukemia [1]; [5]): 18%
MST (L1210 leukemia [1]; [5]): 9.7 days
Wt. Change (L1210 leukemia [1]; [5]): -0.2 g
ILS (L1210 leukemia [1]; [6]): 12%
MST (L1210 leukemia [1]; [6]): 12.0 days
Wt. Change (L1210 leukemia [1]; [6]): 0.3 g
ILS (L1210 leukemia [1]; [7]): 50%
MST (L1210 leukemia [1]; [7]): 12.3 days
Wt. Change (L1210 leukemia [1]; [7]): -1.6 g
ILS (L1210 leukemia [1]; [8]): 21%
MST (L1210 leukemia [1]; [8]): 13.0 days
Wt. Change (L1210 leukemia [1]; [8]): -1.5 g
ILS (L1210 leukemia [1]; [9]): 74%
MST (L1210 leukemia [1]; [9]): 14.3 days
Wt. Change (L1210 leukemia [1]; [9]): -4.2 g
ILS (L1210 leukemia [1]; [10]): 58%
MST (L1210 leukemia [1]; [10]): 17.0 days
Wt. Change (L1210 leukemia [1]; [10]): -2.9 g
ILS (L1210 leukemia [1]; [11]): 135%
MST (L1210 leukemia [1]; [11]): 19.3 days
Wt. Change (L1210 leukemia [1]; [11]): -4.7 g
Wt. Change (L1210 leukemia [1]; 114.7 mg/kg ip days 1-9, Expt. 2): -4.0 g
Wt. Change (L1210 leukemia [1]; 191.2 mg/kg ip days 1-9, Expt. 2): -6.6 g
H2O Sol. % (g per 100 ml H2O) (Water solubility): 10 % (g per 100 ml H2O)
T/C (P388): 172
ILS (L1210 leukemia [2]; [12]): 2%
MST (L1210 leukemia [2]; [12]): 8.9 days
Wt. Change (L1210 leukemia [2]; [12]): 2.5 g
ILS (L1210 leukemia [2]; [13]): 5%
MST (L1210 leukemia [2]; [13]): 8.4 days
Wt. Change (L1210 leukemia [2]; [13]): 0.8 g
ILS (L1210 leukemia [2]; [14]): 9%
MST (L1210 leukemia [2]; [14]): 9.0 days
Wt. Change (L1210 leukemia [2]; [14]): 0.3 g
ILS (L1210 leukemia [2]; [15]): 24%
MST (L1210 leukemia [2]; [15]): 10.8 days
Wt. Change (L1210 leukemia [2]; [15]): 1.4 g
ILS (L1210 leukemia [2]; [16]): 47%
MST (L1210 leukemia [2]; [16]): 11.8 days
Wt. Change (L1210 leukemia [2]; [16]): -2.6 g
ILS (L1210 leukemia [2]; [17]): 34%
MST (L1210 leukemia [2]; [17]): 11.0 days
Wt. Change (L1210 leukemia [2]; [17]): -1.5 g
ILS (L1210 leukemia [2]; [18]): 83%
MST (L1210 leukemia [2]; [18]): 16.0 days
Wt. Change (L1210 leukemia [2]; [18]): -1.7 g
ILS (L1210 leukemia [2]; [19]): 78%
MST (L1210 leukemia [2]; [19]): 14.3 days
Wt. Change (L1210 leukemia [2]; [19]): -4.1 g
ILS (L1210 leukemia [2]; [20]): 119%
MST (L1210 leukemia [2]; [20]): 18.0 days
Wt. Change (L1210 leukemia [2]; [20]): -3.2 g
ILS (L1210 leukemia [2]; [21]): 3%
MST (L1210 leukemia [2]; [21]): 9.0 days
Wt. Change (L1210 leukemia [2]; [21]): -2.6 g
ILS (L1210 leukemia [2]; [22]): 110%
MST (L1210 leukemia [2]; [22]): 16.8 days
Wt. Change (L1210 leukemia [2]; [22]): -5.3 g
ILS (L1210 leukemia [2]; [23]): 143%
MST (L1210 leukemia [2]; [23]): 20.0 days
Wt. Change (L1210 leukemia [2]; [23]): -4.6 g
Wt. Change (L1210 leukemia [2]; 191.2 mg/kg IP days 1-9, Expt. 3): -7.1 g

O=C1NC(=O)[C@H]2[C@H]3C=C[C@@H]([C@@H]12)[C@@H]1[C@H]2C(=O)NC(=O)[C@H]2[C@H]31 [Mitindomide, 4,8-Ethenopyrrolo[3',4':3,4]cyclobut[1,2-f]-isoindole-1,3,5,7(2H,6H) tetrone, octahydro]
ILS (L1210 leukemia [1]; [24]): 21%
MST (L1210 leukemia [1]; [24]): 10.0 days
Wt. Change (L1210 leukemia [1]; [24]): 0.0 g
ILS (L1210 leukemia [1]; [25]): 12%
MST (L1210 leukemia [1]; [25]): 12.0 days
Wt. Change (L1210 leukemia [1]; [25]): -0.1 g
ILS (L1210 leukemia [1]; [26]): 50%
MST (L1210 leukemia [1]; [26]): 12.3 days
Wt. Change (L1210 leukemia [1]; [26]): -3.8 g
ILS (L1210 leukemia [1]; [27]): 42%
MST (L1210 leukemia [1]; [27]): 15.3 days
Wt. Change (L1210 leukemia [1]; [27]): -1.6 g
ILS (L1210 leukemia [1]; [28]): 92%
MST (L1210 leukemia [1]; [28]): 15.8 days
Wt. Change (L1210 leukemia [1]; [28]): -4.3 g
ILS (L1210 leukemia [1]; [29]): 136%
MST (L1210 leukemia [1]; [29]): 25.3 days
Wt. Change (L1210 leukemia [1]; [29]): -4.2 g
ILS (L1210 leukemia [1]; [30]): 6%
MST (L1210 leukemia [1]; [30]): 8.7 days
Wt. Change (L1210 leukemia [1]; [30]): -5.6 g
Wt. Change (L1210 leukemia [1]; 83.3 mg/kg ip days 1-9, Expt. 2): -5.6 g
solubility in water [3]: virtually insoluble in water
inhibitory activity against certain experimental tumor systems [4]: strong inhibitory activity
ILS (L1210 leukemia [2]; [31]): 3%
MST (L1210 leukemia [2]; [31]): 9.0 days
Wt. Change (L1210 leukemia [2]; [31]): 2.3 g
ILS (L1210 leukemia [2]; [32]): 10%
MST (L1210 leukemia [2]; [32]): 8.8 days
Wt. Change (L1210 leukemia [2]; [32]): -0.7 g
ILS (L1210 leukemia [2]; [33]): 13%
MST (L1210 leukemia [2]; [33]): 9.3 days
Wt. Change (L1210 leukemia [2]; [33]): 0.3 g
ILS (L1210 leukemia [2]; [34]): 49%
MST (L1210 leukemia [2]; [34]): 13.0 days
Wt. Change (L1210 leukemia [2]; [34]): 1.2 g
ILS (L1210 leukemia [2]; [35]): 66%
MST (L1210 leukemia [2]; [35]): 13.3 days
Wt. Change (L1210 leukemia [2]; [35]): -3.1 g
ILS (L1210 leukemia [2]; [36]): 86%
MST (L1210 leukemia [2]; [36]): 15.3 days
Wt. Change (L1210 leukemia [2]; [36]): -2.2 g
ILS (L1210 leukemia [2]; [37]): 60%
MST (L1210 leukemia [2]; [37]): 14.0 days
Wt. Change (L1210 leukemia [2]; [37]): 0.2 g
ILS (L1210 leukemia [2]; [38]): 103%
MST (L1210 leukemia [2]; [38]): 16.3 days
Wt. Change (L1210 leukemia [2]; [38]): -3.9 g
ILS (L1210 leukemia [2]; [39]): 156%
MST (L1210 leukemia [2]; [39]): 21.0 days
Wt. Change (L1210 leukemia [2]; [39]): -2.8 g
ILS (L1210 leukemia [2]; [40]): 6%
MST (L1210 leukemia [2]; [40]): 9.3 days
Wt. Change (L1210 leukemia [2]; [40]): -2.5 g
ILS (L1210 leukemia [2]; [41]): 12%
MST (L1210 leukemia [2]; [41]): 9.0 days
Wt. Change (L1210 leukemia [2]; [41]): -5.8 g
ILS (L1210 leukemia [2]; [42]): -3%
MST (L1210 leukemia [2]; [42]): 8.0 days
Wt. Change (L1210 leukemia [2]; [42]): -4.5 g
Wt. Change (L1210 leukemia [2]; 138.9 mg/kg IP days 1-9, Expt. 1): -5.6 g
Wt. Change (L1210 leukemia [2]; 138.9 mg/kg IP days 1-9, Expt. 3): -5.5 g
